From the NIST ThermoML archive (doi:10.1016/j.fluid.2010.03.001)
± gives the expanded uncertainty stated by the source.

Assay: xn = mol fraction of the nth substance listed
Details: 101 kPa, Liquid; for mass density: Vibrating tube method; for viscosity: Concentric cylinders viscometry

`C=C(C)[C@H]1CC=C(C)CC1` [(R)-1-methyl-4-(1-methylethenyl)cyclohexene] + CCCCCO gave a mass density (333.15 K, x2 = 0) of 809.9 ± 0.9 kg/m3, a mass density (333.15 K, x2 = 0.092) of 807.3 ± 0.9 kg/m3 and a mass density (333.15 K, x2 = 0.1644) of 805.5 ± 0.8 kg/m3. For the same molecule, the mass density (333.15 K, x2 = 0.2748) was 803 ± 0.7 kg/m3, the mass density (333.15 K, x2 = 0.3592) was 801 ± 0.6 kg/m3 and the mass density (333.15 K, x2 = 0.4565) was 798.8 ± 0.6 kg/m3. The mass density (333.15 K, x2 = 0.5542) was 796.5 ± 0.5 kg/m3, the mass density (333.15 K, x2 = 0.6068) was 795.2 ± 0.5 kg/m3 and the mass density (333.15 K, x2 = 0.647) was 794.2 ± 0.5 kg/m3. It also gave a mass density (333.15 K, x2 = 0.7365) of 792.2 ± 0.4 kg/m3, a mass density (333.15 K, x2 = 0.8234) of 789.8 ± 0.4 kg/m3 and a mass density (333.15 K, x2 = 0.9105) of 787.3 ± 0.4 kg/m3. For the same molecule, the viscosity (343.15 K, x2 = 0) was 0.5 ± 0.009 mPa·s, the viscosity (343.15 K, x2 = 0.092) was 0.511 ± 0.009 mPa·s and the viscosity (343.15 K, x2 = 0.1644) was 0.52 ± 0.009 mPa·s. For the same molecule, the viscosity (343.15 K, x2 = 0.2748) was 0.546 ± 0.009 mPa·s, the viscosity (343.15 K, x2 = 0.3592) was 0.567 ± 0.009 mPa·s and the viscosity (343.15 K, x2 = 0.4565) was 0.608 ± 0.009 mPa·s. It also gave a viscosity (343.15 K, x2 = 0.5542) of 0.657 ± 0.009 mPa·s, a viscosity (343.15 K, x2 = 0.6068) of 0.688 ± 0.009 mPa·s and a viscosity (343.15 K, x2 = 0.647) of 0.713 ± 0.01 mPa·s. The viscosity (343.15 K, x2 = 0.7365) was 0.786 ± 0.01 mPa·s, the viscosity (343.15 K, x2 = 0.8234) was 0.878 ± 0.011 mPa·s and the viscosity (343.15 K, x2 = 0.9105) was 0.996 ± 0.012 mPa·s. For the same molecule, the mass density (343.15 K, x2 = 0) was 801.9 ± 0.9 kg/m3, the mass density (343.15 K, x2 = 0.092) was 799.2 ± 0.8 kg/m3 and the mass density (343.15 K, x2 = 0.1644) was 797.2 ± 0.8 kg/m3. For the same molecule, the mass density (343.15 K, x2 = 0.2748) was 794.6 ± 0.7 kg/m3, the mass density (343.15 K, x2 = 0.3592) was 792.6 ± 0.6 kg/m3 and the mass density (343.15 K, x2 = 0.4565) was 790.4 ± 0.6 kg/m3. It also gave a mass density (343.15 K, x2 = 0.5542) of 788.2 ± 0.5 kg/m3, a mass density (343.15 K, x2 = 0.6068) of 787 ± 0.5 kg/m3 and a mass density (343.15 K, x2 = 0.647) of 786 ± 0.5 kg/m3. The mass density (343.15 K, x2 = 0.7365) was 783.7 ± 0.4 kg/m3, the mass density (343.15 K, x2 = 0.8234) was 781.5 ± 0.4 kg/m3 and the mass density (343.15 K, x2 = 0.9105) was 779.1 ± 0.4 kg/m3. It also gave a viscosity (353.15 K, x2 = 0) of 0.452 ± 0.008 mPa·s, a viscosity (353.15 K, x2 = 0.092) of 0.462 ± 0.008 mPa·s and a viscosity (353.15 K, x2 = 0.1644) of 0.468 ± 0.008 mPa·s. The viscosity (353.15 K, x2 = 0.2748) was 0.487 ± 0.008 mPa·s, the viscosity (353.15 K, x2 = 0.3592) was 0.502 ± 0.008 mPa·s and the viscosity (353.15 K, x2 = 0.4565) was 0.534 ± 0.008 mPa·s. The viscosity (353.15 K, x2 = 0.5542) was 0.571 ± 0.008 mPa·s, the viscosity (353.15 K, x2 = 0.6068) was 0.594 ± 0.008 mPa·s and the viscosity (353.15 K, x2 = 0.647) was 0.615 ± 0.009 mPa·s. For the same molecule, the viscosity (353.15 K, x2 = 0.7365) was 0.669 ± 0.009 mPa·s, the viscosity (353.15 K, x2 = 0.8234) was 0.737 ± 0.009 mPa·s and the viscosity (353.15 K, x2 = 0.9105) was 0.827 ± 0.01 mPa·s. The mass density (353.15 K, x2 = 0) was 793.6 ± 0.9 kg/m3, the mass density (353.15 K, x2 = 0.092) was 790.8 ± 0.8 kg/m3 and the mass density (353.15 K, x2 = 0.1644) was 788.9 ± 0.8 kg/m3. For the same molecule, the mass density (353.15 K, x2 = 0.2748) was 786.2 ± 0.7 kg/m3, the mass density (353.15 K, x2 = 0.3592) was 784.2 ± 0.6 kg/m3 and the mass density (353.15 K, x2 = 0.4565) was 781.9 ± 0.6 kg/m3. It also gave a mass density (353.15 K, x2 = 0.5542) of 779.5 ± 0.5 kg/m3, a mass density (353.15 K, x2 = 0.6068) of 778.4 ± 0.5 kg/m3 and a mass density (353.15 K, x2 = 0.647) of 777.4 ± 0.5 kg/m3. It also gave a mass density (353.15 K, x2 = 0.7365) of 775.2 ± 0.4 kg/m3, a mass density (353.15 K, x2 = 0.8234) of 773.1 ± 0.4 kg/m3 and a mass density (353.15 K, x2 = 0.9105) of 770.6 ± 0.4 kg/m3. It also gave a viscosity (363.15 K, x2 = 0) of 0.413 ± 0.008 mPa·s, a viscosity (363.15 K, x2 = 0.092) of 0.421 ± 0.008 mPa·s and a viscosity (363.15 K, x2 = 0.1644) of 0.424 ± 0.007 mPa·s. It also gave a viscosity (363.15 K, x2 = 0.2748) of 0.438 ± 0.007 mPa·s, a viscosity (363.15 K, x2 = 0.3592) of 0.448 ± 0.007 mPa·s and a viscosity (363.15 K, x2 = 0.4565) of 0.473 ± 0.007 mPa·s. It also gave a viscosity (363.15 K, x2 = 0.5542) of 0.502 ± 0.008 mPa·s, a viscosity (363.15 K, x2 = 0.6068) of 0.519 ± 0.008 mPa·s and a viscosity (363.15 K, x2 = 0.647) of 0.535 ± 0.008 mPa·s. The viscosity (363.15 K, x2 = 0.7365) was 0.576 ± 0.008 mPa·s, the viscosity (363.15 K, x2 = 0.8234) was 0.627 ± 0.008 mPa·s and the viscosity (363.15 K, x2 = 0.9105) was 0.691 ± 0.009 mPa·s. The mass density (363.15 K, x2 = 0) was 785.4 ± 0.9 kg/m3, the mass density (363.15 K, x2 = 0.092) was 782.5 ± 0.8 kg/m3 and the mass density (363.15 K, x2 = 0.1644) was 780.4 ± 0.8 kg/m3. For the same molecule, the mass density (363.15 K, x2 = 0.2748) was 777.7 ± 0.7 kg/m3, the mass density (363.15 K, x2 = 0.3592) was 775.6 ± 0.6 kg/m3 and the mass density (363.15 K, x2 = 0.4565) was 773.2 ± 0.6 kg/m3. For the same molecule, the mass density (363.15 K, x2 = 0.5542) was 770.9 ± 0.5 kg/m3, the mass density (363.15 K, x2 = 0.6068) was 769.6 ± 0.5 kg/m3 and the mass density (363.15 K, x2 = 0.647) was 768.6 ± 0.5 kg/m3. The mass density (363.15 K, x2 = 0.7365) was 766.5 ± 0.4 kg/m3, the mass density (363.15 K, x2 = 0.8234) was 764.4 ± 0.4 kg/m3 and the mass density (363.15 K, x2 = 0.9105) was 762 ± 0.4 kg/m3. The viscosity (373.15 K, x2 = 0) was 0.382 ± 0.007 mPa·s, the viscosity (373.15 K, x2 = 0.092) was 0.385 ± 0.007 mPa·s and the viscosity (373.15 K, x2 = 0.1644) was 0.386 ± 0.007 mPa·s. The viscosity (373.15 K, x2 = 0.2748) was 0.395 ± 0.007 mPa·s, the viscosity (373.15 K, x2 = 0.3592) was 0.402 ± 0.007 mPa·s and the viscosity (373.15 K, x2 = 0.4565) was 0.421 ± 0.007 mPa·s. It also gave a viscosity (373.15 K, x2 = 0.5542) of 0.443 ± 0.007 mPa·s, a viscosity (373.15 K, x2 = 0.6068) of 0.456 ± 0.007 mPa·s and a viscosity (373.15 K, x2 = 0.647) of 0.469 ± 0.007 mPa·s. The viscosity (373.15 K, x2 = 0.7365) was 0.499 ± 0.007 mPa·s, the viscosity (373.15 K, x2 = 0.8234) was 0.538 ± 0.007 mPa·s and the viscosity (373.15 K, x2 = 0.9105) was 0.584 ± 0.008 mPa·s. The mass density (373.15 K, x2 = 0) was 777.1 ± 0.9 kg/m3, the mass density (373.15 K, x2 = 0.092) was 774.3 ± 0.8 kg/m3 and the mass density (373.15 K, x2 = 0.1644) was 771.9 ± 0.8 kg/m3. For the same molecule, the mass density (373.15 K, x2 = 0.2748) was 769 ± 0.7 kg/m3, the mass density (373.15 K, x2 = 0.3592) was 766.9 ± 0.6 kg/m3 and the mass density (373.15 K, x2 = 0.4565) was 764.4 ± 0.6 kg/m3. It also gave a mass density (373.15 K, x2 = 0.5542) of 762 ± 0.5 kg/m3, a mass density (373.15 K, x2 = 0.6068) of 760.7 ± 0.5 kg/m3 and a mass density (373.15 K, x2 = 0.647) of 759.7 ± 0.5 kg/m3. For the same molecule, the mass density (373.15 K, x2 = 0.7365) was 757.7 ± 0.4 kg/m3, the mass density (373.15 K, x2 = 0.8234) was 755.7 ± 0.4 kg/m3 and the mass density (373.15 K, x2 = 0.9105) was 753.1 ± 0.4 kg/m3.
